In EP0195397A1, “m-Cyanophenethanolamines as animal growth promoters and antilipogenic agents” (AMERICAN CYANAMID COMPANY, priority 1985, dated 1986):
Read-outs that look alike come from different tables or passages of the source.

What was measured:
[1] = target: T1, Beta-1 adrenergic receptor membranes (Meleagris gallopavo, UniProt P07700); experiment: Beta-1 adrenergic activity by (H3) dihydroalprenolol radioligand binding to receptor membranes; set-up: species or system turkey
T1 construct: Freshly drawn heparinized whole blood from turkeys and rats is centrifuged; from tissue; host or cells: erythrocyte membranes from freshly drawn turkey blood
Method: Beta-1 adrenergic activity of experimental compounds is identified by radioactive ligand-binding studies by using beta adrenergic receptor membranes and adrenergic antagonist (H3) dihydroalprenolol (DHA). Binding of (H3) DHA to membrane fractions is assayed by filtration on glass fiber filters. Specific binding is defined as total radioactivity bound minus nonspecific bound radioactivity, i.e., binding in the presence of 100 µM non-radioactive DHA. Results are expressed as the concentrations of the compound required to displace […] radioactive ligand from binding of beta adrenergic receptors (K-50).
In these tests, beta adrenergic receptor membranes are incubated with radioactive dihydroalprenolol (H3 DHA) and experimental compounds. The bound radio- ligand is separated by filtration on glass fiber filters and counted by scintillation counter.
Beta-1 adrenergic receptor membranes are isolated from turkey and rat erythrocytes respectively using the procedures of: • Hancock, A., DeLean, A., Lefkowitz, R. J. Mol. Pharmacol. 16:1, 1979; • DeLean, A, Hancock A., Lefkowitz, R. J. Mol. Pharmacol. 21:5, 1979; or • Lefkowitz, R. J., Stadel, J. M., and Caron, M. G. Ann. Rev. Biochem 52:157, 1983.
Freshly drawn heparinized whole blood from turkeys and rats is centrifuged for five minutes ([…]). The plasma is withdrawn; the remaining erythrocytes are suspended in 150mM sodium chloride solutions and centrifuged. The cells are resuspended and centrifuged twice more. […] The protein concentration of receptor membranes is determined by the biuret method.
To duplicate incubation, tubes are added 200 µl suspended membranes (200 µg protein), 25 µl of compound in solution or buffer and 25 µl (H3) dihydroalprenolol ([…]). […] The filters are rinsed three times with 5 mL of cold buffer (145 mM NaCl, 1 mM ethylenediaminetetraacetic acid, and 10 mM tris, pH 7.4) and subsequently counted by liquid scintillation counter in 10 mL of aquasol. […]

[2] = Evaluation of test compounds as animal growth promoters and antilipogenic agents - mouse test; type: in vivo, CFI female mice; settings: 12-day test period; for Gain (grams): weight gain per cage of ten mice; for % Reduction in fat pad weight vs controls: right uterine fat pad, minus sign = reduction
Method: CFI female mice from Carworth Farms are received when they are six-weeks old. They are housed ten to a cage in air-conditioned rooms (22 °C to 25 °C) with automatically-controlled lights, 14 hours on and ten hours off. The basal diet used in these studies is Purina Laboratory Chow (see description below) which is supplied ad libitum. The following is a description of the diet to which the growth-promoting compounds were added. Thirteen days after arrival, the mice are weighed in groups of ten and assigned at random to the different treatments. Each of the treatments is tested in three replicates, i.e., in three cages of ten mice each. There are ten cages of ten control mice each. Drugs are mixed in the diet at the dosage level indicated. Feed and water are offered ad libitum for a 12-day test period. Feed spilled is collected during the test period. At the end of the test period, the collected feed is weighed, and the mean feed consumption per cage of ten mice is determined for each treatment. The mice are weighed as a group of ten, and the weight gain determined. The mice are sacrificed by cervical dislocation. The right uterine fat pad of each mouse is removed. The fat pads for each cage of ten mice are weighed as a unit. Reduction in fat pad weights of animals is generally indicative of a reduction of total body fat of the treated animals.

[3] = concentration required to displace 50% radioactive ligand ((H3) DHA), 23°C, one hour, read-out: β1 K-50

T1 sequence (P07700 whole entry): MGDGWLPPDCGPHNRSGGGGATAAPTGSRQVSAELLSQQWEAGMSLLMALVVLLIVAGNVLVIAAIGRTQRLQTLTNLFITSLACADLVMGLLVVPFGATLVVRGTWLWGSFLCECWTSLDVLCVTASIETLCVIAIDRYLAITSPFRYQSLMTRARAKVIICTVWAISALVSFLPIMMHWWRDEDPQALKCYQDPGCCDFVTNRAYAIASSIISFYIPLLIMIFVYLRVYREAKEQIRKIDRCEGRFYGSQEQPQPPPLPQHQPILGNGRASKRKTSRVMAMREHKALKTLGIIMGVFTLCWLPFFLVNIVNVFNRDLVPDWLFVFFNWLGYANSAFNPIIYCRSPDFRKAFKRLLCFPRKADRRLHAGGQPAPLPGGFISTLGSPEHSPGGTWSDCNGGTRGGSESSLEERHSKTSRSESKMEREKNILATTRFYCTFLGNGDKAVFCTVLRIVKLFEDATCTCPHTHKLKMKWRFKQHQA

Row | Compound | IC50 [1] [µM] | Gain (grams) ([2]; 3 ppm in diet) | Gain (grams) ([2]; 6 ppm in diet) | Gain (grams) ([2]; 12 ppm in diet) | Gain (grams) ([2]; 25 ppm in diet) | Gain (grams) ([2]; 50 ppm in diet) | % Reduction in fat pad weight vs controls ([2]; 100 ppm in diet) [%] | Gain (grams) ([2]; 100 ppm in diet) | Gain (grams) ([2]; 200 ppm in diet) | % Reduction in fat pad weight vs controls ([2]; 25 ppm in diet) | % Reduction in fat pad weight vs controls ([2]; 50 ppm in diet) [%] | IC50 [1, 3] [µM]
1 | CC(C)(C)NCC(O)c1cc(Cl)c(N)c(Cl)c1 (stereo not drawn) [Clenbuterol, reference compound] | 0.977 | – | – | – | – | – | – | – | – | – | – | –
2 | CC(C)NCC(O)c1cccc(C#N)c1 (stereo not drawn) [the 2nd table drawing] | – | 32.4 | 23.4 | 29.4 | 37.1 | 37.4 | -9.1 | 37.3 | 39.0 | – | – | –
3 | CC(C)(C)NCC(O)c1cccc(C#N)c1 (stereo not drawn) [the 3rd table drawing] | – | 29.3 | 37.4 | 30.5 | 35.9 | 41.1 | -16.9 | 36.1 | 33.2 | +5.2% | -11.6 | –
4 | CC(C)NCC(O)c1cccc(C#N)c1 (stereo not drawn) [the 4th table, row 4 drawing] | – | – | – | – | – | – | – | – | – | – | – | > 100
5 | CC(C)(C)NCC(O)c1cccc(C#N)c1 (stereo not drawn) [the 4th table, row 5 drawing] | – | – | – | – | – | – | – | – | – | – | – | > 100
